The text below walks through data of BindingDB's records for patent US20240148821 (Chugai Seiyaku Kabushiki Kaisha, 2024).

By IC50 is commonly meant the midpoint of a concentration-inhibition curve. Lower therefore signals higher potency.

Numbered stars: 1 amine (or outer) side, 2 acyl side, 3 side chain; on linkers, the order of the positions; unused ones are H or OH. Bridge positions count the residues as written; N and C are the ends. Square brackets hold non-standard residues; d marks the D form. Peptide text beside a SMILES is read from it. * marks the point of attachment. ξ: configuration not given here. hPhe(3,5-F2-4-CF3) = N[C@@H](CCc1cc(F)c(C(F)(F)F)c(F)c1)C(=O)O; hPhe(3-Cl-4-CF3) = N[C@@H](CCc1ccc(C(F)(F)F)c(Cl)c1)C(=O)O; hPhe(3-F,4-CF3) = N[C@@H](CCc1ccc(C(F)(F)F)c(F)c1)C(=O)O; NMeGly(COCH2cHex) = CN[C@H](C(=O)O)C(=O)CC1CCCCC1; X54 = COc1cc(CC[C@H](N[*:1])C(=O)[*:2])cc(Cl)c1Cl; X63 = O=C([C@H](CCc1ccc(C(F)F)c(F)c1)N[*:1])[*:2]; X96 = O=C([C@H](CCc1ccc(C(F)(F)F)nc1)N[*:1])[*:2]; Piperazinyl(4-(3-oxetanyl)) = C1OCC1N1CCN(*)CC1; X55 = Cn1ccc2ccc(CC[C@H](N[*:1])C(=O)[*:2])cc21; X44 = O=C([C@H](CCc1ccc2cccnc2c1)N[*:1])[*:2]; X85 = O=C([C@H](CCc1ccc2ncccc2c1)N[*:1])[*:2]; NMeGly(cPent) = CN[C@H](C(=O)O)C1CCCC1; NMeCha = CN[C@@H](CC1CCCCC1)C(=O)O; cisHyp = O=C(O)[C@@H]1C[C@H](O)CN1; ξPro(4,4-F2) = O=C(O)C1CC(F)(F)CN1; Hyp = O=C(O)[C@@H]1C[C@@H](O)CN1; NMeChg = CN[C@H](C(=O)O)C1CCCCC1; NMeI = CC[C@H](C)[C@H](NC)C(=O)O; NMeD = CN[C@@H](CC(=O)O)C(=O)O; NMeL = CN[C@@H](CC(C)C)C(=O)O; d(β3hA) = C[C@@H](N)CC(=O)O; NMeA = CN[C@@H](C)C(=O)O; Piperidide = C1CCN(*)CC1; Pyrrolidide = C1CCN(*)C1; Ac5c = NC1(C(=O)O)CCCC1; Aze = O=C(O)[C@@H]1CCN1; Ac4c = NC1(C(=O)O)CCC1; ξP = O=C(O)C1CCCN1; Sar = CNCC(=O)O

For the experiment, the target named is GTPase KRas (G12D) and Son of Sevenless Homolog 1 (SOS) (Homo sapiens, UniProt P01116, G12D). Description: AlphaScreen Assay. For orientation: Bead proximity is the source of the signal in Alpha formats.
Sequence of GTPase KRas (G12D) and Son of Sevenless Homolog 1 (SOS) (P01116 whole entry G12D): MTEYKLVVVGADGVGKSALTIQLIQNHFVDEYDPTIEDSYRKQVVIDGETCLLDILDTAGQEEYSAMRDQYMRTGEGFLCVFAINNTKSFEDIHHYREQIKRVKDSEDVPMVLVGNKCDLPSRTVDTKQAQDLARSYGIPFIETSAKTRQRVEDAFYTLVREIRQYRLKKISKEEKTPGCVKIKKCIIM
Sequence of GTPase KRas (G12D) and Son of Sevenless Homolog 1 (SOS) (Q07889 whole entry, further chain): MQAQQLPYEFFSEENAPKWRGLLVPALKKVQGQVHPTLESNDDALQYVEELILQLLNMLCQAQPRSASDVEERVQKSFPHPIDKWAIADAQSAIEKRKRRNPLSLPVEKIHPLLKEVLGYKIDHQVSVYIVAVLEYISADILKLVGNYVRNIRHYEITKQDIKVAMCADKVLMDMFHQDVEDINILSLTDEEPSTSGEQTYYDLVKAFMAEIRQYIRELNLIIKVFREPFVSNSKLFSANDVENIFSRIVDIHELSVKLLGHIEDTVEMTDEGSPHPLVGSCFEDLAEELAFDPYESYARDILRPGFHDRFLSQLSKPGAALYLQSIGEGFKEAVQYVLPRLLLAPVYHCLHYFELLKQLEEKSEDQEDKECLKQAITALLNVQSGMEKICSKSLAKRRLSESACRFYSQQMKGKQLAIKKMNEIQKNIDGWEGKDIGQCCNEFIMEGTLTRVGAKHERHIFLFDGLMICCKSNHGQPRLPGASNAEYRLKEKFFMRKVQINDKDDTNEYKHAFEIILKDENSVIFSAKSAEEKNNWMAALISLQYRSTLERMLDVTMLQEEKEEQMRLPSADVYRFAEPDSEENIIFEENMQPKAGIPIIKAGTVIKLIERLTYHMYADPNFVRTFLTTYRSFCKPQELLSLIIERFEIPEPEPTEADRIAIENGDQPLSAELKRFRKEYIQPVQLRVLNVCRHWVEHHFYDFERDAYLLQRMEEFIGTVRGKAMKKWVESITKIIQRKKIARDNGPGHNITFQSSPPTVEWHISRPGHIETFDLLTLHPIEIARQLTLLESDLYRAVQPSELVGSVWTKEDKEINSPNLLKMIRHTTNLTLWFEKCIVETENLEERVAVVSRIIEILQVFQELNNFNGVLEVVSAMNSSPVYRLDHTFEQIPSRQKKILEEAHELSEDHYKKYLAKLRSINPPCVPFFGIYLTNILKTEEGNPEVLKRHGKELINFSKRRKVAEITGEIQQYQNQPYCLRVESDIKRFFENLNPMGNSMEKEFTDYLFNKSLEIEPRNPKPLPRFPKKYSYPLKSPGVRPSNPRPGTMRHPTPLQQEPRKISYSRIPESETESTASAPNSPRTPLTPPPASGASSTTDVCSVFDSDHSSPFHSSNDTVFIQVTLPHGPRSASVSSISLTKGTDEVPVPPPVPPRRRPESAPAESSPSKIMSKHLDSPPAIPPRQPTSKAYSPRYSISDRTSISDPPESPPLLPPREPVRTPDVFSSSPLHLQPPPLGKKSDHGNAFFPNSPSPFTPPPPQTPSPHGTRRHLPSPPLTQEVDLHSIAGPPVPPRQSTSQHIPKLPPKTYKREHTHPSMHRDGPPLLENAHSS
Method: Protein-protein interaction inhibition (PPI) between Kras and SOS1 was measured by energy transfer from nickel-conjugated donor beads to streptavidin-conjugated acceptor beads using biotin-tagged human Kras expressed in E. coli and loaded with GDP after purification and His-tagged human SOS1 enzyme. This measurement utilizes the phenomenon in which donor beads are irradiated with light at 680 nm, such that energy is transferred to acceptor beads through singlet oxygen and light at 520-620 nm is detected from the acceptor beads.
With `CC[C@H](C)[C@@H]1NC(=O)[C@H](CC(C)C)N(C)C(=O)C[C@@H](C(=O)N2CCCCC2)N(C)C(=O)[C@H](CC(C)C)N(C)C(=O)C2(CCCC2)NC(=O)[C@@H]2C[C@H](O)CN2C(=O)[C@H](CCc2ccc(C(F)(F)F)c(F)c2)NC(=O)CN(C)C(=O)[C@H](CC2CCCCC2)N(C)C(=O)CN(C)C(=O)CN(C)C1=O` [US20240148821, Compound 544] ([NMeL]I[Sar][Sar][NMeCha][Sar][hPhe(3-F,4-CF3)][cisHyp][Ac5c][NMeL][NMeD]-Piperidide; lactam N-11), the IC50 worked out at 2.2 nM. `CC[C@H](C)[C@@H]1NC(=O)[C@H](CC(C)C)N(C)C(=O)C[C@@H](C(=O)N2CCN(C3COC3)CC2)NC(=O)[C@H]([C@@H](C)CC)N(C)C(=O)C2(CCCC2)NC(=O)C2CCCN2C(=O)[C@H](CCc2ccc(C(F)(F)F)c(Cl)c2)NC(=O)CN(C)C(=O)[C@H](C(=O)CC2CCCCC2)N(C)C(=O)CN(C)C(=O)CN(C)C1=O` (stereo partly drawn) [US20240148821, Compound 1191] ([NMeL]I[Sar][Sar][NMeGly(COCH2cHex)][Sar][hPhe(3-Cl-4-CF3)][ξP][Ac5c][NMeI]D-{Piperazinyl(4-(3-oxetanyl))}; lactam N-11) displayed a half-maximal inhibitory concentration (IC50) of 6.7 nM. For `CC[C@H](C)[C@@H]1NC(=O)[C@H](CC(C)C)N(C)C(=O)C[C@@H](C(=O)N2CCCC2)N(C)C(=O)[C@H](C2CCCCC2)N(C)C(=O)C2(CCC2)NC(=O)C2CC(F)(F)CN2C(=O)[C@H](CCc2cc(F)c(C(F)(F)F)c(F)c2)NC(=O)CN(C)C(=O)[C@H](C(=O)CC2CCCCC2)N(C)C(=O)CN(C)C(=O)CN(C)C1=O` (stereo not given in full) [US20240148821, Compound 1192] ([NMeL]I[Sar][Sar][NMeGly(COCH2cHex)][Sar][hPhe(3,5-F2-4-CF3)][ξPro(4,4-F2)][Ac4c][NMeChg][NMeD]-Pyrrolidide; lactam N-11) the value was 0.39 nM; for `CC[C@H](C)[C@@H]1NC(=O)[C@H](CC(C)C)N(C)C(=O)C[C@@H](C)NC(=O)[C@H](CC(C)C)N(C)C(=O)C2(CCCC2)NC(=O)[C@@H]2C[C@@H](O)CN2C(=O)[C@H](CCc2ccc(C(F)(F)F)c(F)c2)NC(=O)CN(C)C(=O)[C@H](CC2CCCCC2)N(C)C(=O)CN(C)C(=O)CN(C)C1=O` [US20240148821, Compound 1483] (cyclo([Ac5c][NMeL][d(β3hA)][NMeL]I[Sar][Sar][NMeCha][Sar][hPhe(3-F,4-CF3)][Hyp])), 34 nM. In the case of `CC[C@H](C)[C@@H]1NC(=O)[C@H](CC(C)C)N(C)C(=O)C[C@@H](C(=O)N2CCCCC2)N(C)C(=O)[C@H](C2CCCC2)N(C)C(=O)C2(CCCC2)NC(=O)[C@@H]2CCCN2C(=O)[C@H](CCc2ccc3ccn(C)c3c2)NC(=O)CN(C)C(=O)[C@H](CC2CCCCC2)N(C)C(=O)[C@@H]2CCN2C(=O)[C@H](C)N(C)C1=O` [US20240148821, Compound 2065] ([NMeL]I[NMeA][Aze][NMeCha][Sar][X55]P[Ac5c][NMeGly(cPent)][NMeD]-Piperidide; lactam N-11), half-maximal inhibition (IC50) required 16 nM. The same measure for `CC[C@H](C)[C@@H]1NC(=O)[C@H](CC(C)C)N(C)C(=O)C[C@@H](C(=O)N2CCCCC2)N(C)C(=O)[C@H](C2CCCC2)N(C)C(=O)C2(CCCC2)NC(=O)[C@@H]2CCCN2C(=O)[C@H](CCc2ccc3ncccc3c2)NC(=O)CN(C)C(=O)[C@H](CC2CCCCC2)N(C)C(=O)[C@@H]2CCN2C(=O)[C@H](C)N(C)C1=O` [US20240148821, Compound 2070] ([NMeL]I[NMeA][Aze][NMeCha][Sar][X85]P[Ac5c][NMeGly(cPent)][NMeD]-Piperidide; lactam N-11): 18 nM; for `CC[C@H](C)[C@@H]1NC(=O)[C@H](CC(C)C)N(C)C(=O)C[C@@H](C(=O)N2CCCCC2)N(C)C(=O)[C@H](C2CCCC2)N(C)C(=O)C2(CCCC2)NC(=O)[C@@H]2CCCN2C(=O)[C@H](CCc2ccc3cccnc3c2)NC(=O)CN(C)C(=O)[C@H](CC2CCCCC2)N(C)C(=O)[C@@H]2CCN2C(=O)[C@H](C)N(C)C1=O` [US20240148821, Compound 2077] ([NMeL]I[NMeA][Aze][NMeCha][Sar][X44]P[Ac5c][NMeGly(cPent)][NMeD]-Piperidide; lactam N-11): 47 nM; for `CC[C@H](C)[C@@H]1NC(=O)[C@H](CC(C)C)N(C)C(=O)C[C@@H](C(=O)N2CCCCC2)N(C)C(=O)[C@H](C2CCCC2)N(C)C(=O)C2(CCCC2)NC(=O)[C@@H]2CCCN2C(=O)[C@H](CCc2ccc(C(F)(F)F)nc2)NC(=O)CN(C)C(=O)[C@H](CC2CCCCC2)N(C)C(=O)[C@@H]2CCN2C(=O)[C@H](C)N(C)C1=O` [US20240148821, Compound 2078] ([NMeL]I[NMeA][Aze][NMeCha][Sar][X96]P[Ac5c][NMeGly(cPent)][NMeD]-Piperidide; lactam N-11): 11 nM. For `CC[C@H](C)[C@@H]1NC(=O)[C@H](C)N(C)C(=O)C[C@@H](C(=O)N2CCCCC2)N(C)C(=O)[C@H](C2CCCCC2)N(C)C(=O)C2(CCCC2)NC(=O)C2CCCN2C(=O)[C@H](CCc2cc(Cl)c(Cl)c(OC)c2)NC(=O)CN(C)C(=O)[C@H](C(=O)CC2CCCCC2)N(C)C(=O)CN(C)C(=O)CN(C)C1=O` (stereo not given in full) [US20240148821, Compound 2081] ([NMeA]I[Sar][Sar][NMeGly(COCH2cHex)][Sar][X54][ξP][Ac5c][NMeChg][NMeD]-Piperidide; lactam N-11) the value was 2 nM; for `CC[C@H](C)[C@@H]1NC(=O)[C@H](CC(C)C)N(C)C(=O)C[C@@H](C(=O)N2CCCCC2)N(C)C(=O)[C@H](C2CCCC2)N(C)C(=O)C2(CCCC2)NC(=O)[C@@H]2CCCN2C(=O)[C@H](CCc2ccc(C(F)F)c(F)c2)NC(=O)CN(C)C(=O)[C@H](CC2CCCCC2)N(C)C(=O)[C@@H]2CCN2C(=O)[C@H](C)N(C)C1=O` [US20240148821, Compound 2085] ([NMeL]I[NMeA][Aze][NMeCha][Sar][X63]P[Ac5c][NMeGly(cPent)][NMeD]-Piperidide; lactam N-11), 2.9 nM.
